Experimental data from patent US20110135756A1, “COMPOSITIONS AND METHODS FOR PROTECTING SENSORY HAIR CELLS” (University of Washington, priority 2009, published 2011).
Entries after “also recorded” stand apart in the source; their conditions may differ. Where a name gives a salt, the structure may show the parent alone.

Legend:
[1] = system: gentamicin entry into hair cells; experiment: Gentamicin-conjugated Texas Red (GTTR) uptake imaging; type: in vivo, zebrafish (Danio rerio); settings: protective drug at optimal dose; 50 uM GTTR for 3 min
Description: Gentamicin-conjugated Texas Red Imaging. […] Fish were anesthetized with MS222 and transferred to double wholemount slides for imaging using fluorescence microscopy on an automated stage (Marianas imaging system, Intelligent Imaging Innovations) with a Zeiss Axiovert 200M inverted microscope (Carl Zeiss). Each image contained a z-stack encompassing 2-3 neuromasts as determined by viewing under brightfield illumination. Each fish was imaged once and 5 fish were imaged for each treatment group. Control fish were treated with EM only (mock-treated) or with 3 min of 50 uM GTTR only.
GTTR Image analysis. […] Then 2-3 neuromasts per image were traced and converted to a mask field “Mask 1”. […] Then Boolean addition was used to create the neuromast mask (NM) by taking “Mask1” AND thresholded segment and the background mask (BG) by taking “Mask2” AND thresholded segment. Mean intensity, standard deviation of intensity, sum intensity and volume in voxels were calculated for NM and BG. To create an index of intensity, NM/BG was calculated for each fish and values for mock-treated fish were subtracted and multiplied by 100 to obtain “% intensity above background”.

[2] = system: hair cells of the zebrafish lateral line; experiment: Dose response testing: protection of zebrafish lateral line hair cells against toxin-induced hair cell death (DASPEI neuromast scoring); type: in vivo, zebrafish (Danio rerio)
Experimental: Animal care. Wildtype Larval zebrafish (Danio rerio) were produced via group matings of adult fish. […] Beginning at 4 days post-fertilization (dpf), fish were fed live paramecia or rotifers daily. Experiments were performed using 5 or 6 dpf larvae. The University of Washington Animal Care and Use Committee approved of the animal procedures described here.
Dose response testing. Drug screen “hits” were tested to determine minimum concentrations of drug and maximum concentrations of toxin that confer protection against hair cell death. All “hits” were tested against all four hair cell toxins regardless of whether a given “hit” was positive with a specific toxin in the screen. 5 or 6 dpf larvae were transferred to 6-well Corning Netwell baskets and placed in 6-well plates (Fisher Scientific) in EM with approximately 10 fish per basket. This allowed for easy transfer between treatment media. Drug and toxins were made up in 7 ml of EM. Larvae were pretreated for one hour in a dose of protective drug followed by cotreatment in protective drug and hair cell toxin. […] Then larvae were rinsed 4× and anesthetized with MS222. Larvae were transferred to glass depression slides and viewed on a Leica epifluorescent microscope with a DASPEI filter (Chroma Technologies, Brattleboro Vt.). […] To find minimum protective concentrations, doses of protective drug tested were 0, 0.5, 1, 5, 10, 50, 100 uM and toxin dose was held at the concentrations used for screening (see above). For those doses of putative protectants that killed the larvae, further doses were tested to determine if intermediate doses were optimal. For dose response curves finding maximum toxin dose at which protection occurs, dose of protective drug was held at previously determined optimal dose and toxin dose was varied as follows: […]

bacteria = experiment: Antibiotic efficacy of the ototoxic aminoglycoside in presence of protective drug; type: cell-based
[3] = system: hair cells of the zebrafish lateral line; experiment: Screen of BIOMOL FDA Approved Drug Library for protection against toxin-induced hair cell death (YO-PRO1); type: in vivo, zebrafish (Danio rerio); settings: 4 μg/ml library compound, 1 hr preincubation
Experimental: Drug Library. BIOMOL's FDA Approved Drug Library (Enzo Life Sciences Inc., Plymouth Meeting, Pa., USA (formerly BIOMOL International, L.P.)) was used to screen zebrafish larvae for compounds that protect against toxin-induced hair cell death. The library consists of 640 drugs dissolved at 2 mg/ml in dimethyl sulfoxide (DMSO). The drugs were aliquoted into eight 96-well plates with 80 drugs per plate and stored at 4 C during initial screening and re-testing.
Screening. Larvae were prelabeled with 2 μM YO-PRO1 (Invitrogen, Carlsbad, Calif. USA; Y3603) in embryo medium for 30 min and then rinsed three times. […]
Concentrations and incubation times were chosen based on previously determined dose-response in order to achieve maximal hair cell death at the lowest concentration of toxin (Ou et al. 2007; Owens et al. 2009). […] After incubation in library drug and hair cell toxin, larvae were anesthetized with 0.001% MS222 (3-aminobenzoic acid ethyl ester methanesulfonate; Sigma) and immediately viewed using fluorescence microscopy on an automated stage (Marianas imaging system, Intelligent Imaging Innovations) using a Zeiss Axiovert 200M inverted microscope (Carl Zeiss). Fish were scored on a scale from 0 to 2 with 2 corresponding to mostly healthy hair cells and a 0 corresponding to mostly dead hair cells. […]

[4] = system: hair cells of the zebrafish lateral line; experiment: Pretreatment experiments (1 hr, 15 min or no pretreatment before 200 uM neomycin); type: in vivo, zebrafish (Danio rerio); settings: for Pre-treatment time prior to aminoglycoside exposure giving greater effectiveness: zebrafish, in vivo
Description: Pretreatment experiments. […] Controls were mock treated or treated with neomycin only.

[5] = system: hearing (threshold shift); type: in vivo, rat; settings: rats; protectant 25 mg/kg intraperitoneally; kanamycin 25 mg/kg per day i.p. for two weeks
Experimental: Rats were injected with 25 mg/kg per day (intraperitoneal) kanamycin for two weeks, a treatment that induces a hearing loss similar to that observed in humans following aminoglycoside treatment. At higher frequencies, the hearing loss observed in rats treated with kanamycin (without protectant) is a threshold shift of 50 dB and at mid-frequencies a hearing loss observed is 30-40 dB threshold shift.
The PROTO1 was administered intraperitoneally at a dose of 25 mg/kg. The PROTO1 was given as a 3.33 mg/mL solution in 1:1:2:16 (DMSO:Cremophor EL:EtOH:PBS).

sensory hair cells = experiment: Zebrafish model of protection of sensory hair cells against ototoxins (PROTO1); settings: in vivo
[6] = system: cultured lung cancer cells; experiment: Inhibition of growth of cultured lung cancer cells in presence of protective drug (in vitro); type: cell-based; settings: in vitro testing
zebrafish hair cells = experiment: Quinoline ring derivatives: pretreatment protection against neomycin-induced hair cell death (FIG. 1); type: in vivo; settings: 5 dpf zebrafish; 0, 10, 50, 100 or 200 μM pretreatment; 200 μM neomycin
Experimental: FIG. 1 is a bar graph depicting results of cinchonine pretreatment, which protects against neomycin-induced hair cell death. Five day post-fertilization zebrafish were pretreated with 0, 10, 50, 100 or 200 μM cinchonine prior to treatment with 200 μM neomycin. […] The negative control represents fish not exposed to neomycin. Data bars are mean hair cell survival from 8 to 10 fish. Error bars represent standard deviation from the mean.
Five day post-fertilization zebrafish were pretreated with 0, 10, 50, 100 or 200 μM cinchonine prior to treatment with 200 μM neomycin. […] The negative control represents fish not exposed to neomycin. Data bars are mean hair cell survival from 8 to 10 fish. Error bars represent standard deviation from the mean.

[7] = system: hearing and vestibular function; settings: human, in vivo; cited from earlier work

Compound | Uptake (whether gentamicin is able to enter cells in the presence of protective drug) [1] | Protection of sensory hair cells against gentamicin ([2]; zebrafish, in vivo) | Effect on antibiotic efficacy of the ototoxic aminoglycoside (bacteria) | other results
NC(=NCc1ccccc1)NC(=O)c1nc(Cl)c(N)nc1N [Benzamil] | attenuate | – | – | –
CCN(CC)CCCC(C)Nc1ccnc2cc(Cl)ccc12 (stereo not drawn) [Chloroquine diphosphate] | – | protect against gentamicin | without diminishing the antibiotic efficacy | –
CNCCC(Oc1ccc(C(F)(F)F)cc1)c1ccccc1 (stereo not drawn) [Fluoxetine HCl] | no block | – | without diminishing the antibiotic efficacy | –
O=C1NCN(c2ccccc2)C12CCN(CCCC(c1ccc(F)cc1)c1ccc(F)cc1)CC2 [Fluspirilene] | no block | – | without diminishing the antibiotic efficacy | –
CN(C)C(=O)C(CCN1CCC(O)(c2ccc(Cl)cc2)CC1)(c1ccccc1)c1ccccc1 [Loperamide] | no block | protect against gentamicin | without diminishing the antibiotic efficacy | Protection in library screen against aminoglycosides (neomycin, gentamicin, kanamycin) and/or cisplatin [3]: protects against all four toxins; Protection of sensory hair cells against kanamycin ([2]; zebrafish, in vivo): protect against kanamycin
CSc1ccc2c(c1)C(N1CCN(C)CC1)Cc1ccccc1S2.O=C(O)/C=C\C(=O)O (stereo not drawn) [Methiothepin maleate] | no block | protect against gentamicin | without diminishing the antibiotic efficacy | Drug dose (optimal dose that confers protection against toxins) ([2]; 5 or 6 dpf larvae, toxin dose held at screening concentration): 10 µM; Pre-treat (necessary pretreatment time before toxin exposure for effective protection) ([4]; followed by 1 hr cotreatment with 200 uM neomycin): 60 min; Pre-treatment time prior to aminoglycoside exposure giving greater effectiveness [4]: 60 min
CCN1CCc2c(sc(NC(=O)Nc3ccc(Cl)cc3)c2C(N)=O)C1 [PROTO1, 2-({[(4-chlorophenyl)amino]carbonyl}amino)-6-ethyl-4,5,6,7-tetrahydrothieno[2,3-c]pyridine-3-carboxamide] | – | – | – | Protection against kanamycin-induced hearing loss [5]: significant protection against hearing loss; Protection of sensory hair cells against ototoxins in the Zebrafish model (sensory hair cells): shown to protect
Fc1ccc([C@@H]2CCNC[C@H]2COc2ccc3c(c2)OCO3)cc1 [Paroxetine HCl] | attenuate | protect against gentamicin | without diminishing the antibiotic efficacy | Protection of sensory hair cells against cisplatin ([2]; zebrafish, in vivo): protective against cisplatin; Effect on inhibition of growth of cultured lung cancer cells [6]: alters inhibition of growth of some cultured lung cancer cells at some doses and not at others
CC(COc1ccccc1)N(CCCl)Cc1ccccc1 (stereo not drawn) [Phenoxybenzamine HCl] | attenuate | protect against gentamicin | without diminishing the antibiotic efficacy | Pre-treatment time prior to aminoglycoside exposure giving greater effectiveness [4]: 15 min
CC(CCc1ccc(O)cc1)NCC(O)c1ccc(O)cc1 (stereo not drawn) [Ractopamine] | block | protect against gentamicin; also recorded: protected | without diminishing the antibiotic efficacy | Protection of sensory hair cells against kanamycin ([2]; zebrafish, in vivo): protect against kanamycin; also recorded: protected; Protection of sensory hair cells from neomycin ([2]; zebrafish, in vivo): protected
O=C(c1ccc(OCCN2CCCCC2)cc1)c1c(-c2ccc(O)cc2)sc2cc(O)ccc12 [Raloxifene HCl] | block | protect against gentamicin | without diminishing the antibiotic efficacy | –
CC/C(=C(\c1ccccc1)c1ccc(OCCN(C)C)cc1)c1ccccc1 [Tamoxifen citrate] | no block | – | without diminishing the antibiotic efficacy | –
CN(C)CCOc1ccc(/C(=C(/CCCl)c2ccccc2)c2ccccc2)cc1 [Toremifene citrate] | – | – | without diminishing the antibiotic efficacy | –
C=C[C@H]1C[N@@]2CC[C@H]1C[C@@H]2[C@@H](O)c1ccnc2ccccc12 [cinchonine] | – | – | – | Hair cell survival after neomycin with cinchonine pretreatment (zebrafish hair cells): increasing hair cell survival
N.N.[Cl][Pt][Cl] [cisplatin] | – | – | – | High frequency hearing loss (>8 kHZ) incidence [7]: ≤ 90%
